This is an account of results in US7696249B2, “Diphenyl urea derivatives” (ARPIDA AG, priority 2005, dated 2010).

What all share (type): cell-based
For one assay, the system named is S. pneumoniae 1/1. Briefly: MIC, CLSI methodology with Todd Hewitt Broth without blood. As to conditions: Streptococcus pneumoniae, pathogens for ocular infections, read-out: Minimum Inhibitory Concentration (MIC) S. pneumoniae 1/1. The protocol: (§1) Antimicrobial susceptibility testing was performed in accordance with the Clinical and Laboratory Standards Institute (CLSI). Clinical and Laboratory Standards Institute (CLSI; formerly NCCLS): Methods for Dilution Antimicrobial Susceptibility Tests for Bacteria That Grow Aerobically; Approved Standard—Seventh Edition (2006). Clinical and Laboratory Standards Institute document M7-A7. Streptococci (S. pneumoniae, S. pyogenes, S. viridans) were tested following the CLSI methodology with the exception that Todd Hewitt Broth without blood was used. Anaerobic bacteria (P. acnes, B. distasonis) were tested following CLSI (formerly NCCLS) guidelines except for using microbroth dilutions in Wilkins Chalgren Broth. National Committee for Clinical Laboratory Standards (NCCLS). Methods for Anti-microbial Susceptibility Testing of Anaerobic Bacteria; Approved Standard—Sixth Edition (2004). NCCLS document M11-A6.

Another assay relates to S. viridans UHC 7. The description is as above. As to conditions: Streptococcus viridans, UHC7; pathogens for dental infections; read-out: Minimum Inhibitory Concentration (MIC) S. viridans UHC 7. The protocol: as §1
The next assay deals with S. pyogenes GAS-1. The assay is described as above. The note with it: for MIC: Streptococcus pyogenes, GAS1, pathogens for ocular infections, read-out: Minimum Inhibitory Concentration (MIC) S. pyogenes GAS-1; for Minimum Inhibitory Concentration (MIC) S. pyogenes GAS-1: pathogens for skin infections. The protocol: as §1
In another assay the test system is S. epidermidis MRSE 70. Briefly: MIC, broth dilution antimicrobial susceptibility testing (CLSI). The note with it: for MIC: Staphylococcus epidermidis, MRSE, pathogens for nasal colonization, read-out: Minimum Inhibitory Concentration (MIC) S. epidermidis MRSE 70. The protocol:
(§2) Antimicrobial susceptibility testing was performed in accordance with the Clinical and Laboratory Standards Institute (CLSI).
(§3) Clinical and Laboratory Standards Institute (CLSI; formerly NCCLS): Methods for Dilution Antimicrobial Susceptibility Tests for Bacteria That Grow Aerobically; Approved Standard—Seventh Edition (2006). Clinical and Laboratory Standards Institute document M7-A7.
(In general: In broth dilution the organism is exposed to a series of concentrations in liquid medium.)

The next assay deals with E. faecalis VanB E80-8. The description is as above. As to conditions: for MIC: Enterococcus faecalis, VANBE808, pathogens for skin infections, read-out: Minimum Inhibitory Concentration (MIC) E. faecalis VanB E80-8; for Minimum Inhibitory Concentration (MIC) E. faecalis VanB E80-8: pathogens for gastro-intestinal infections. The protocol:
as §2, §3

Another assay concerns S. aureus ATCC 25923. The assay is described as above. The note with it: Staphylococcus aureus, ATCC25923. The protocol:
as §2, §3

The subject of a further assay is S. aureus MRSA 39. The description is as above. The note with it: for MIC: Staphylococcus aureus, MRSA, pathogens for nasal colonization, read-out: Minimum Inhibitory Concentration (MIC) S. aureus MRSA 39. The protocol:
as §2, §3

The next assay concerns S. aureus MRSA 101. Described as above. As to conditions: for MIC: Staphylococcus aureus, MRSA, pathogens for nasal colonization, read-out: Minimum Inhibitory Concentration (MIC) S. aureus MRSA 101; for Minimum Inhibitory Concentration (MIC) S. aureus MRSA 101: pathogens for ocular infections. The protocol:
as §2, §3

The next assay relates to B. distasonis 5770. Put plainly: MIC, anaerobic bacteria, microbroth dilutions in Wilkins Chalgren Broth. The note with it: Parabacteroides distasonis, pathogens for gastro-intestinal infections, read-out: Minimum Inhibitory Concentration (MIC) B. distasonis 5770. The protocol: as §1, with “(CLSI).” for “(CLSI). Clinical and Laboratory Standards Institute (CLSI; formerly NCCLS): Methods for Dilution Antimicrobial Susceptibility Tests for Bacteria That Grow Aerobically; Approved Standard—Seventh Edition (2006). Clinical and Laboratory Standards Institute document M7-A7.”

The test system of the next assay is P. acnes 6390. The assay is described as above. The note with it: Cutibacterium acnes, pathogens for skin infections, read-out: Minimum Inhibitory Concentration (MIC) P. acnes 6390. The protocol: as §1, with “(CLSI).” for “(CLSI). Clinical and Laboratory Standards Institute (CLSI; formerly NCCLS): Methods for Dilution Antimicrobial Susceptibility Tests for Bacteria That Grow Aerobically; Approved Standard—Seventh Edition (2006). Clinical and Laboratory Standards Institute document M7-A7.”

Setting [1] is: pathogens for ocular infections.
The mark [2] stands for this setting: pathogens for nasal colonization, read-out: Minimum Inhibitory Concentration (MIC) S. aureus ATCC 25923.
Setting [3] is: pathogens for ocular infections, read-out: Minimum Inhibitory Concentration (MIC) S. aureus 25923.

Values after ≈ are worked out from the molar mass of the structure shown. Like-named read-outs stand apart in the source and are kept apart here.

For `O=C(Nc1cc(F)cc(C(F)(F)F)c1)Nc1ccc(Cl)c(C(F)(F)F)c1` [Example 1, 1-(3-Fluoro-5-trifluoromethyl-phenyl)-3-(4-chloro-3-trifluoromethyl-phenyl)-urea], the MIC is 0.06 µg/mL (≈ 0.15 µM) in the assay on S. pneumoniae 1/1; 0.5 µg/mL (≈ 1.25 µM) in the assay with S. viridans UHC 7; 0.125 µg/mL (≈ 0.312 µM) in the assay on S. pyogenes GAS-1; 0.25 µg/mL (≈ 0.624 µM) in the assay with S. epidermidis MRSE 70; 1 µg/mL (≈ 2.5 µM) in the assay on E. faecalis VanB E80-8; 0.125 µg/mL (≈ 0.312 µM) in the assay on S. aureus ATCC 25923 (setting [2]). Further, the MIC in the assay on S. aureus ATCC 25923 (setting [3]) is 0.125 µg/mL (≈ 0.312 µM); in the assay with S. aureus MRSA 39 it was 0.125 µg/mL (≈ 0.312 µM); in the assay on S. aureus MRSA 101, 0.125 µg/mL (≈ 0.312 µM); in the assay on B. distasonis 5770, 0.25 µg/mL (≈ 0.624 µM); in the assay with P. acnes 6390, at most 0.03 µg/mL. The “Minimum Inhibitory Concentration (MIC) S. pyogenes GAS-1” value in the assay with S. pyogenes GAS-1 turned out to be 0.125 micrograms/ml. Besides, the “Minimum Inhibitory Concentration (MIC) S. epidermidis MRSE 70” value in the assay on S. epidermidis MRSE 70 (setting [1]) and in the assay on S. epidermidis MRSE 70 (pathogens for skin infections) was 0.25 micrograms/ml each time. Besides, in the assay on E. faecalis VanB E80-8, the “Minimum Inhibitory Concentration (MIC) E. faecalis VanB E80-8” value is 1 micrograms/ml. Moreover, the “Minimum Inhibitory Concentration (MIC) S. aureus MRSA 39” value in the assay on S. aureus MRSA 39 (setting [1]) and with S. aureus MRSA 39 (pathogens for skin infections) was 0.125 micrograms/ml each time. Moreover, the “Minimum Inhibitory Concentration (MIC) S. aureus MRSA 101” value in the assay on S. aureus MRSA 101 came out at 0.125 micrograms/ml.
In the case of `Fc1cc(NC(=S)Nc2ccc(Cl)c(C(F)(F)F)c2)cc(C(F)(F)F)c1` [Example 3, 1-(3-Fluoro-5-trifluoromethyl-phenyl)-3-(4-chloro-3-trifluoromethyl-phenyl)-thiourea], the MIC was found to be 0.5 µg/mL (≈ 1.2 µM) in the assay with S. pneumoniae 1/1; 2 µg/mL (≈ 4.8 µM) with S. viridans UHC 7; 0.5 µg/mL (≈ 1.2 µM) with S. pyogenes GAS-1; 0.25 µg/mL (≈ 0.6 µM) in the assay on S. epidermidis MRSE 70; 2 µg/mL (≈ 4.8 µM) in the assay with E. faecalis VanB E80-8; 0.25 µg/mL (≈ 0.6 µM) with S. aureus ATCC 25923 (setting [2]). Further, the MIC was 0.25 µg/mL (≈ 0.6 µM) in the assay with S. aureus ATCC 25923 (setting [3]); 0.25 µg/mL (≈ 0.6 µM) in the assay with S. aureus MRSA 39; 0.25 µg/mL (≈ 0.6 µM) in the assay on S. aureus MRSA 101; 0.5 µg/mL (≈ 1.2 µM) with B. distasonis 5770; at most 0.03 µg/mL in the assay with P. acnes 6390. The “Minimum Inhibitory Concentration (MIC) S. pyogenes GAS-1” value with S. pyogenes GAS-1 was 0.5 micrograms/ml. Moreover, the “Minimum Inhibitory Concentration (MIC) S. epidermidis MRSE 70” value in the assay with S. epidermidis MRSE 70 (setting [1]) and in the assay on S. epidermidis MRSE 70 (pathogens for skin infections) was 0.25 micrograms/ml each time. The “Minimum Inhibitory Concentration (MIC) E. faecalis VanB E80-8” value with E. faecalis VanB E80-8 turned out to be 2 micrograms/ml. Also, the “Minimum Inhibitory Concentration (MIC) S. aureus MRSA 39” value in the assay on S. aureus MRSA 39 (setting [1]) and in the assay with S. aureus MRSA 39 (pathogens for skin infections) was 0.25 micrograms/ml each time. Also, the “Minimum Inhibitory Concentration (MIC) S. aureus MRSA 101” value in the assay with S. aureus MRSA 101 worked out at 0.25 micrograms/ml.
`O=C(Nc1cc(F)cc(C(F)(F)F)c1)Nc1ccc(Br)c(C(F)(F)F)c1` [Example 2, 1-(3-Fluoro-5-trifluoromethyl-phenyl)-3-(4-bromo-3-trifluoromethyl-phenyl)-urea]: the MIC in the assay on S. pneumoniae 1/1 is at most 0.03 µg/mL; in the assay with S. viridans UHC 7, 0.5 µg/mL (≈ 1.12 µM); in the assay on S. pyogenes GAS-1, 0.06 µg/mL (≈ 0.135 µM); with S. epidermidis MRSE 70, 0.5 µg/mL (≈ 1.12 µM); in the assay on E. faecalis VanB E80-8, 1 µg/mL (≈ 2.25 µM); with S. aureus ATCC 25923 (setting [2]) it was 0.125 µg/mL (≈ 0.281 µM). The MIC in the assay with S. aureus ATCC 25923 (setting [3]) was 0.125 µg/mL (≈ 0.281 µM); in the assay on S. aureus MRSA 39, 0.125 µg/mL (≈ 0.281 µM); in the assay with S. aureus MRSA 101, 0.25 µg/mL (≈ 0.562 µM); in the assay on B. distasonis 5770 it was 0.25 µg/mL (≈ 0.562 µM); with P. acnes 6390, at most 0.03 µg/mL. In addition, the “Minimum Inhibitory Concentration (MIC) S. pyogenes GAS-1” value in the assay on S. pyogenes GAS-1 was found to be 0.06 micrograms/ml. Also, the “Minimum Inhibitory Concentration (MIC) S. epidermidis MRSE 70” value in the assay on S. epidermidis MRSE 70 (setting [1]) and in the assay with S. epidermidis MRSE 70 (pathogens for skin infections) was 0.5 micrograms/ml throughout. Besides, the “Minimum Inhibitory Concentration (MIC) E. faecalis VanB E80-8” value in the assay on E. faecalis VanB E80-8 is on record as 1 micrograms/ml. Also, the “Minimum Inhibitory Concentration (MIC) S. aureus MRSA 39” value with S. aureus MRSA 39 (setting [1]) and in the assay with S. aureus MRSA 39 (pathogens for skin infections) was 0.125 micrograms/ml in each case. Moreover, in the assay with S. aureus MRSA 101, the “Minimum Inhibitory Concentration (MIC) S. aureus MRSA 101” value is on record as 0.25 micrograms/ml.
